Assay [1] deals with human colon tumour cell line HT29. Briefly: Cellular Assay (phosphohistone H3 Ser10 mitotic marker, HT29). The format is cell-based. To be noted: HT-29, 24 h, HT29 cells, read-out: IC50 (cellular assay, phosphohistone H3).
Protocol: Chromosome condensation in mitosis is accompanied by phosphorylation of histone H3 on serine 10.
After 24 hours, cells were fixed in 3.7% (v/v) formaldehyde then permeabilised and blocked for 10 minutes in 100 μl 0.5% (v/v) Triton X-100, 1% (w/v) bovine serum albumin (BSA) in phosphate buffered saline (PBS). […] The raw assay data were analysed by non-linear regression analysis and used to determine an IC50 value for each compound.
The next assay has as its target recombinant Plk1 (Homo sapiens, UniProt P53350). Description: In Vitro Plk1 Enzyme Assay (SPA, GST-Cdc25C phosphorylation). The format is biochemical. The note with it: ATP 64 nM, 90 minutes, read-out: IC50 (Plk1 enzyme inhibition).

Where a name gives a salt, the structure may show the parent alone.

In general, IC50 refers to the point on the concentration scale where inhibition reaches its midpoint.

recombinant Plk1, sequence (P53350 whole entry): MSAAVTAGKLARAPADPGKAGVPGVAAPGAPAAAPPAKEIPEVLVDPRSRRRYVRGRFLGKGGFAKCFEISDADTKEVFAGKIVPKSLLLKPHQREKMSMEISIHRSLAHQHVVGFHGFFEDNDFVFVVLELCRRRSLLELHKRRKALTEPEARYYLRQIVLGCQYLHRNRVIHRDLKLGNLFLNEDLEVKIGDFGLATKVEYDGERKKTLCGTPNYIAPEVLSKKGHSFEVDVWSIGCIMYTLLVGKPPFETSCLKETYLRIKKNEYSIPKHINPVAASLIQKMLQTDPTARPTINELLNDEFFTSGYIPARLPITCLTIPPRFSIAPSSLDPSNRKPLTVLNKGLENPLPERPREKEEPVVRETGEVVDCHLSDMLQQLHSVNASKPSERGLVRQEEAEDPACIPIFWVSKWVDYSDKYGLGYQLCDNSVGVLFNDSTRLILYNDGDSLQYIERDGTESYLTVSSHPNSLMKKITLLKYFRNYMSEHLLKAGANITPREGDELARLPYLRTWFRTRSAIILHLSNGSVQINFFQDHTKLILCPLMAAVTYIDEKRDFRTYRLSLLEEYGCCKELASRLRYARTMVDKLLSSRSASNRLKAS

In the case of `COc1cc(N2CCCN(C)CC2)ccc1Nc1ncc2c(n1)N(C1CCCC1)CCC(=O)N2C` [Example 109, 6-cyclopentyl-9-[[2-methoxy-4-(4-methyl-1,4-diazepan-1-yl)phenyl]amino]-2-methyl-2,6,8,10-tetrazabicyclo[5.4.0]undeca-8,10,12-trien-3-one], the IC50 in assay [1] is below 300 nM; on recombinant Plk1, below 1000 nM.
For `COc1cc(C(=O)NCCCN2CCCCCC2)ccc1Nc1ncc2c(n1)N(C1CCCC1)CCC(=O)N2C` [Example 70, N-[3-(azepan-1-yl)propyl]-4-[(6-cyclopentyl-2-methyl-3-oxo-2,6,8,10-tetrazabicyclo[5.4.0]undeca-8,10,12-trien-9-yl)amino]-3-methoxy-benzamide] the same measures were below 300 nM and below 1000 nM.
In the same order, the values of `CN1CCC(NC(=O)c2ccc(Nc3ncc4c(n3)N(C3CCCC3)CCC(=O)N4C)cc2F)CC1` [Example 189, 4-[(6-cyclopentyl-2-methyl-3-oxo-2,6,8,10-tetrazabicyclo[5.4.0]undeca-8,10,12-trien-9-yl)amino]-2-fluoro-N-(1-methyl-4-piperidyl)benzamide] are below 300 nM and below 300 nM.
Regarding `COc1cc(C(=O)NCCN(C)C)ccc1Nc1ncc2c(n1)N(C1CCCC1)CC1(CC1)C(=O)N2C` [Example 387, 4-(9′-cyclopentyl-5′-methyl-6′-oxo-5′,6′,8′,9′-tetrahydrospiro[cyclopropane-1,7′-pyrimido[5,4-b][1,4]diazepine]-2′-ylamino)-N-(2-dimethylaminoethyl)-3-methoxy-benzamide], the IC50 (in assay [1]; at recombinant Plk1) was below 300 nM each time.
Turning to `CCCNC(=O)c1ccc(Nc2ncc3c(n2)N(C2CCCC2)CCC(=O)N3C)c(OC)c1` [Example 93, 4-[(6-cyclopentyl-2-methyl-3-oxo-2,6,8,10-tetrazabicyclo[5.4.0]undeca-8,10,12-trien-9-yl)amino]-3-methoxy-N-propyl-benzamide], the IC50 in assay [1] was below 300 nM; on recombinant Plk1 it was below 1000 nM.
Turning to `CN(C)c1ccc(Nc2ncc3c(n2)N(C2CCCC2)CCC(=O)N3C)cc1` [Example 122, 6-cyclopentyl-9-[(4-dimethylaminophenyl)amino]-2-methyl-2,6,8,10-tetrazabicyclo[5.4.0]undeca-8,10,12-trien-3-one], the results for the IC50 (in assay [1]; at recombinant Plk1) were below 30000 nM and below 100000 nM, respectively.
For `COc1cc(C(=O)NC2CCN(CC3CC3)CC2)ccc1Nc1ncc2c(n1)N(C1CCCC1)CCC(=O)N2C` [Example 319, 4-[(2-cyclopentyl-6-methyl-5-oxo-2,6,9,11-tetrazabicyclo[5.4.0]undeca-7,9,11-trien-10-yl)amino]-N-[1-(cyclopropylmethyl)-4-piperidyl]-3-methoxy-benzamide] the same measures were below 300 nM and below 300 nM.
In the same order, the values of `COc1cc(C(=O)NCCCCN2CCCC2)ccc1Nc1ncc2c(n1)N(C(C)C)CCC(=O)N2C` [Example 209, 3-methoxy-4-[(2-methyl-3-oxo-6-propan-2-yl-2,6,8,10-tetrazabicyclo[5.4.0]undeca-7,9,11-trien-9-yl)amino]-N-(4-pyrrolidin-1-ylbutyl)benzamide] are below 300 nM and below 300 nM.
Regarding `CCC1CN(C2CCCC2)c2nc(Nc3ccc(C(=O)NC4CCN(C)CC4)cc3OC)ncc2N(C)C1=O` (single isomer, unassigned) [Example 236], the IC50 (in assay [1]; at recombinant Plk1) was below 300 nM each time.
Turning to `CN1CCC(NC(=O)c2cnc(Nc3ncc4c(n3)N(C3CCCC3)CCC(=O)N4C)s2)CC1` [Example 263, 2-[(6-cyclopentyl-2-methyl-3-oxo-2,6,8,10-tetrazabicyclo[5.4.0]undeca-8,10,12-trien-9-yl)amino]-N-(1-methyl-4-piperidyl)1,3-thiazole-5-carboxamide], the IC50 was below 30000 nM in assay [1] and below 100000 nM on recombinant Plk1.
On to `COc1cc(C(=O)NCC(C)(C)CN(C)C)ccc1Nc1ncc2c(n1)N(C1CCCC1)CCC(=O)N2C` [Example 10, 4-[(2-Cyclopentyl-6-methyl-5-oxo-2,6,9,11-tetrazabicyclo[5.4.0]undeca-8,10,12-trien-10-yl)amino]-N-(3-dimethylamino-2,2-dimethyl-propyl)-3-methoxy-benzamide hydrochloride], for which the IC50 (in assay [1]; on recombinant Plk1) was below 300 nM in each case.
With `CCN1CCC(NC(=O)c2ccc(Nc3ncc4c(n3)N(C3CCCC3)CC3(CC3)C(=O)N4C)c(OC)c2)CC1` [Example 383, 4-(9′-cyclopentyl-5′-methyl-6′-oxo-5′,6′,8′,9′-tetrahydrospiro[cyclopropane-1,7′-pyrimido[5,4-b][1,4]diazepine]-2′-ylamino)-N-(1-ethyl-4-piperidyl)-3-methoxy-benzamide], the IC50 in assay [1] is below 300 nM; at recombinant Plk1, below 1000 nM.
On to `CCOc1cc(C(=O)NC2CCN(C)CC2)ccc1Nc1ncc2c(n1)N(C(C)C)CCC(=O)N2C` [Example 281, 3-ethoxy-4-[(6-methyl-5-oxo-2-propan-2-yl-2,6,9,11-tetrazabicyclo[5.4.0]undeca-7,9,11-trien-10-yl)amino]-N-(1-methyl-4-piperidyl)benzamide], for which the results for the IC50 (in assay [1]; at recombinant Plk1) were below 1000 nM and below 300 nM, respectively.
For `CN1CCC(NC(=O)c2ccc(Nc3ncc4c(n3)N(c3ccccc3)CCC(=O)N4)c(Cl)c2)CC1` [Example 248, 3-chloro-N-(1-methyl-4-piperidyl)-4-[(3-oxo-6-phenyl-2,6,8,10-tetrazabicyclo[5.4.0]undeca-8,10,12-trien-9-yl)amino]benzamide] the same measures were below 30000 nM and below 100000 nM.
With `COc1cc(N(C)C2CCN(C)CC2)ccc1Nc1ncc2c(n1)N(C1CCCC1)CCC(=O)N2C` [Example 104, 6-cyclopentyl-9-[[2-methoxy-4-[methyl-(1-methyl-4-piperidyl)amino]phenyl]amino]-2-methyl-2,6,8,10-tetrazabicyclo[5.4.0]undeca-8,10,12-trien-3-one], the IC50 was below 1000 nM in assay [1] and below 300 nM on recombinant Plk1.
For `CN1CCC(NC(=O)c2c(F)cc(Nc3ncc4c(n3)N(C3CCCC3)CCC(=O)N4C)cc2F)CC1` [Example 187, 4-[(6-cyclopentyl-2-methyl-3-oxo-2,6,8,10-tetrazabicyclo[5.4.0]undeca-8,10,12-trien-9-yl)amino]-2,6-difluoro-N-(1-methyl-4-piperidyl)benzamide], the IC50 is below 30000 nM in assay [1] and below 100000 nM at recombinant Plk1.
In the same order, the values of `COc1cc(C(=O)NC2CCN(C)CC2)ccc1Nc1ncc2c(n1)N(Cc1ccoc1)CCC(=O)N2C` [Example 231, 4-[[6-(3-furylmethyl)-2-methyl-3-oxo-2,6,8,10-tetrazabicyclo[5.4.0]undeca-8,10,12-trien-9-yl]amino]-3-methoxy-N-(1-methyl-4-piperidyl)benzamide] are below 30000 nM and below 300 nM.
Consider `CC(=O)N1CCc2cc(Nc3ncc4c(n3)N(C3CCCC3)CCC(=O)N4C)ccc21` [Example 124, 9-[(1-acetyl-2,3-dihydroindol-5-yl)amino]-6-cyclopentyl-2-methyl-2,6,8,10-tetrazabicyclo[5.4.0]undeca-8,10,12-trien-3-one], for which the IC50 was below 30000 nM in assay [1] and below 1000 nM on recombinant Plk1.
Regarding `COc1cc(C(=O)N[C@H]2C[C@H]3CCC[C@@H](C2)N3C)ccc1Nc1ncc2c(n1)N(C1CCCC1)CCC(=O)N2C` [Example 59, 4-[(6-cyclopentyl-2-methyl-3-oxo-2,6,8,10-tetrazabicyclo[5.4.0]undeca-8,10,12-trien-9-yl)amino]-3-methoxy-N-[(1S,5R)-9-methyl-9-azabicyclo[3.3.1]non-7-yl]benzamide], the IC50 (in assay [1]; at recombinant Plk1) was below 300 nM throughout.
`COc1cc(C(=O)NC2CCN(C)CC2)ccc1Nc1ncc2c(n1)N(C1CCCC1)CC(C)(C)C(=O)N2C` [Example 235, 4-[(2-cyclopentyl-4,4,6-trimethyl-5-oxo-2,6,9,11-tetrazabicyclo[5.4.0]undeca-7,9,11-trien-10-yl)amino]-3-methoxy-N-(1-methyl-4-piperidyl)benzamide]: the IC50 (in assay [1]; on recombinant Plk1) was below 300 nM each time.
With `CNCCNC(=O)c1ccc(Nc2ncc3c(n2)N(C2CCCC2)CCC(=O)N3C)c(OC)c1` [Example 43, 4-[(6-cyclopentyl-2-methyl-3-oxo-2,6,8,10-tetrazabicyclo[5.4.0]undeca-8,10,12-trien-9-yl)amino]-3-methoxy-N-(2-methylaminoethyl)benzamide], the IC50 (in assay [1]; at recombinant Plk1) was below 300 nM each time.
Turning to `CN1C(=O)CCN(C2CCCC2)c2nc(Nc3ccc(C(=O)NCCN4CCCC4)cc3Cl)ncc21` [Example 318, 3-chloro-4-[(2-cyclopentyl-6-methyl-5-oxo-2,6,9,11-tetrazabicyclo[5.4.0]undeca-7,9,11-trien-10-yl)amino]-N-(2-pyrrolidin-1-ylethyl)benzamide], the IC50 (in assay [1]; at recombinant Plk1) was below 300 nM each time.
Turning to `COc1cc(C(=O)NCCN(C)C)ccc1Nc1ncc2c(n1)N(C(C)C)CCC(=O)N2C` [Example 207, N-(2-dimethylaminoethyl)-3-methoxy-4-[(2-methyl-3-oxo-6-propan-2-yl-2,6,8,10-tetrazabicyclo[5.4.0]undeca-7,9,11-trien-9-yl)amino]benzamide], the IC50 (in assay [1]; at recombinant Plk1) was below 300 nM each time.
`COc1ccc(NC(C)=O)cc1Nc1ncc2c(n1)N(C1CCCC1)CCC(=O)N2C` [Example 176, N-[3-[(6-cyclopentyl-2-methyl-3-oxo-2,6,8,10-tetrazabicyclo[5.4.0]undeca-8,10,12-trien-9-yl)amino]-4-methoxy-phenyl]acetamide]: the values for the IC50 (in assay [1]; at recombinant Plk1) were below 1000 nM and below 300 nM, respectively.
For `CCN1CCC(NC(=O)c2ccc(Nc3ncc4c(n3)N(C3CCCCC3)CC3(CC3)C(=O)N4C)c(OC)c2)CC1` [Example 433, 4-(9′-cyclohexyl-5′-methyl-6′-oxo-5′,6′,8′,9′-tetrahydrospiro[cyclopropane-1,7′-pyrimido[5,4-b][1,4]diazepine]-2′-ylamino)-N-(1-ethyl-4-piperidyl)-3-methoxy-benzamide], the IC50 in assay [1] was below 300 nM; at recombinant Plk1, below 100000 nM.

Values taken from patent US7709471B2, “Compounds” (AstraZeneca AB, priority 2006, dated 2010).
